According to patent publication US9340500B2, “Aromatic heterocyclic derivative having TRPV4-inhibiting activity” (SHIONOGI & CO., LTD., priority 2011, dated 2016):
≈ marks a conversion by molar mass, not a printed value.

How the values were obtained:
human TRPV4 [1] = molecular target: T1, human TRPV4 (Homo sapiens (Human), UniProt Q9HBA0); assay: Test Example 1: measurement of TRPV4 inhibitory activity (Fluo 4-AM, FLIPR TETRA, 4α-PDD 1 μmol/L); format: cell-based; details: hTRPV4/CHO cells; for IC50: 4α-PDD 1 μmol/L; for Ki: calculated from IC50 and 4α-PDD EC50
T1 sequence (Q9HBA0 whole entry): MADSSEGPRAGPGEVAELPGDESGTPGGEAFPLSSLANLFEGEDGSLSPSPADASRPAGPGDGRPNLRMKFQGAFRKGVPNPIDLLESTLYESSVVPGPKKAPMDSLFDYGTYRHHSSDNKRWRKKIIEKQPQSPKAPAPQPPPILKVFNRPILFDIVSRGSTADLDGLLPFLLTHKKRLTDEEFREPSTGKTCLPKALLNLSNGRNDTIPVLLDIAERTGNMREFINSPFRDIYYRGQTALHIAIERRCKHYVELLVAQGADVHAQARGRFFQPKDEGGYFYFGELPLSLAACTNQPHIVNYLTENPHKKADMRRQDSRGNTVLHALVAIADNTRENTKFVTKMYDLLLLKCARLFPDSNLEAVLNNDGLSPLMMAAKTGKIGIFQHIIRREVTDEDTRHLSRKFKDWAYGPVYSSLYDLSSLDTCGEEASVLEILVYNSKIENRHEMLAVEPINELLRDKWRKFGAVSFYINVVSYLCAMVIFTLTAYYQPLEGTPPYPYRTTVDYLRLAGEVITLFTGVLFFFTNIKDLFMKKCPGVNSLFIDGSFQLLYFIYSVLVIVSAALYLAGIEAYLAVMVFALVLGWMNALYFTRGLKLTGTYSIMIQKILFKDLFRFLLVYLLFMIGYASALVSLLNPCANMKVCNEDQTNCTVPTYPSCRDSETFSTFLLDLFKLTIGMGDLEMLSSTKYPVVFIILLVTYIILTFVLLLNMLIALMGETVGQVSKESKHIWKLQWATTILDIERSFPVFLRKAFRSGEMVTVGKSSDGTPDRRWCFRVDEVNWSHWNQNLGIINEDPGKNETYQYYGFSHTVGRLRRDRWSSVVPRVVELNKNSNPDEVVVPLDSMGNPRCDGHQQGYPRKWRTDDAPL
Method: (§1) For each compound, TRPV4 inhibitory activity was measured using cells.
(§2) (1) The TRPV4 inhibitory activity was measured using CHO-K1 cells stably expressing human TRPV4 (hTRPV4/CHO cells).
(2) In the day before the experimental day, frozen cell were thawed and washed with the culture medium (MEM-α, 10% FBS, 2 mmol/L GlutaMax, 50 unit Penicillin, 50 μg/mL Streptomycin). Then cells were suspended in the culture medium.
(3) The 384-well plates which hTRPV4/CHO cells were seeded at densities of 4000 cells/well in the culture medium and cultured in a CO2 incubator in the presence of 5% CO2 at 37° C. for overnight was used as assay plates.
(4) The assay plate was washed with assay buffer (Hanks, 20 mmol/L HEPES, 2.5 mmol/L probenecid, pH7.4), and the buffer were remained at 20 μL/well.
(5) 10 μl of dye loading buffer (9 μmol/L Fluo 4-AM, 0.09% Pluronic F-127/assay buffer) was added to each well, then the assay plate was incubated in a CO2 incubator in the presence of 5% CO2 at 37° C. for one hour. (final 3 μmol/L Fluo4-AM).
(6) The assay plate was washed with the assay buffer, and the buffers were remained at 20 μL/well. Then the assay plate was incubated for 10 min at room temperature.
(7) Diluted compound solution was dispensed to each well in the compound plate, and mixed with built-in Pipette and Mixer of the Fluorescence analysis system FLIPR TETRA (Molecular devices).
(8) After incubation for 5 min, 20 μL of 4α-PDD solution were applied to each well of assay plate and mixed with the FLIPR TETRA. (final 1 μmol/L 4α-PDD)
(9) The fluorescent intensity was measured with FLIPR TETRA system for 10 min from the point of time addition the compound solution, at Ex 470-495 nm, Em 515-575 nm wavelength.
TRPV4 inhibitory activity (IC50 value and Ki value) of a compound was evaluated according to the following procedure.
(10) In the presence of the compound, the difference between maximal and minimal of fluorescent intensity value for 5 min from just before addition of 4α-PDD solution was calculated, and it was referred as Max-Min value. Max-Min value of the Ruthenium Red at 20 μM was defined as 100% inhibitory activity, Max-Min value in the absence of the compound was defined as 0% inhibitory activity. The TRPV4 inhibitory activity of the compound was calculated by the following formula. (1−(Max-Min value of the compound−100% inhibitory activity)/(0% inhibitory activity−100% inhibitory activity))×100 (11) Inhibitory activity was calculated at 10 points with three fold serial dilution, in the final concentration of the compound from 10 μmmol/L to 0.5 nmol/L, the IC50 value was calculated by logistic approximation method. (12) In the absence of the compound, the fluorescent intensity was measured as the same method with 10, 1, 0.5, 0.2, and 0 μmol/L as final concentration of 4α-PDD. The difference of minimal and maximal fluorescent intensity value for 5 min from just before addition of 4α-PDD solution was calculated, and it was referred as Max-Min value. Max-Min value of the 4α-PDD at 10 μmol/L was defined as 100% activity, Max-Min value in the absence of 4α-PDD was defined as 0% activity. The TRPV4 activity of each concentration of 4α-PDD was calculated by the following formula. (Max-Min value of the each 4α-PDD concentration−0% activity)/(100% activity−0% activity))×100 (13) Effective activity was calculated in 5 concentrations of 4α-PDD the above. The EC50 value was calculated by logistic approximation method. The Ki value of a compound was calculated by the following formula. Ki (nmol/L)=IC50 value (nmol/L)/(1+[…] (test 4α-PDD concentration (nmol/L)/EC50 value (nmol/L))

Solubility test = format: physicochemical; details: artificial intestinal juice (phosphate buffer) with 1% DMSO, fassgf or other biorelevant, kinetic from dmso stock, artificial intestinal juice pH 6.8, 16 hours at 25° C.
Method: The solubility of each compound is determined under 1% DMSO addition conditions. A 10 mmol/L solution of the compound is prepared with DMSO, and 6 μL of the compound solution is added to 594 μL of an artificial intestinal juice (water and 118 mL of 0.2 mol/L NaOH reagent are added to 250 mL of 0.2 mol/L potassium dihydrogen phosphate reagent to reach 1000 mL) with a pH of 6.8. The mixture is left standing for 16 hours at 25° C., and the mixture is vacuum-filtered. The filtrate is two-fold diluted with methanol/water=1/1, and the compound concentration in the filtrate is measured with HPLC or LC/MS/MS by the absolute calibration method.

human TRPV4 [2] = molecular target: T1, human TRPV4; assay: Test Example 3: measurement of TRPV4 inhibitory activity (Fluo-3, FDSS 3000, 4α-PDD); format: cell-based; details: hTRPV4/CHO cells, calculated from IC50 and 4α-PDD EC50
Method: as §1, §2
(2) Frozen cells were thawed and subcultured with the medium (MEM-α, 10% FBS, […], 50 unit/mL penicillin, 50 μg/mL streptomycin, 1 mg/mL G418).
(3) The 96-well plates which hTRPV4/CHO cells were seeded at densities of 2×10^4 cells/well in the culture medium and cultured in a CO2 incubator in the presence of 5% CO2 at 37° C. for 24 h was used as assay plates.
(4) The assay plate was washed with assay buffer (Hanks, […], […], pH7.4).
(5) Fluo-3, fluorescent dye for Ca influx assay was added to each well, then the assay plate was incubated in a CO2 incubator in the presence of 5% CO2 at 37° C. for one hour (final conc.; 5 μmmol/L Fluo-3).
(6) The assay plate was washed with the assay buffer, and the buffer was remained at 30 μL/well. Then the assay plate was incubated for 10 min at 37° C.
(7) Diluted compound solution was dispensed to each well in the compound plate, and mixed with built-in Pipette and Mixer of the fluorescence analysis system FDSS 3000 (Hamamatsu Photonics).
(8) 50 μL of 4α-PDD solution (concluding 0.1% Pluronic F-127) was applied to each well of assay plate and mixed.
(9) The fluorescent intensity was measured by FDSS 3000 for 8 min from the point of time addition the compound solution, at Ex 480 nm, Em 540 nm wavelength.
TRPV4 inhibitory activity (Ki value) of a compound was evaluated according to the following procedure.
(10) In the presence of the compound, the difference between maximal and minimal of fluorescent intensity value for 8 min from just before addition of 4α-PDD solution was calculated, and it was referred as Max-Min value. Max-Min value of the Ruthenium Red at 10 μM was defined as 100% inhibitory activity, Max-Min value in the absence of the compound was defined as 0% inhibitory activity. The TRPV4 inhibitory activity of the compound was calculated by the following formula. (1−(Max-Min value of the compound−100% inhibitory activity)/(0% inhibitory activity−100% inhibitory activity))×100 (11) By the following formula, inhibitory activity was calculated at 10 points with three fold serial dilution, in the final concentration of the compound from 10 μmmol/L to 0.5 nmol/L. The IC50 value was calculated by dose-response curve. 100−[(fluorescent intensity in the presence of the compound−fluorescent intensity of back ground)/(total fluorescent intensity−fluorescent intensity of back ground)]×100 (12) In the presence of the compound, activity of 4α-PDD was measured at 9 points with three fold serial dilution from 20 μmol/L. Activity of 4α-PDD was calculated by the following formula. (Max-Min value of the each 4α-PDD concentration−0% activity)/(100% activity−0% activity))×100 (13) Effective activity was calculated in 4α-PDD the above. The EC50 value was calculated by dose-response curve. (14) The Ki value of a compound was calculated by the following formula. Ki (nmol/L)=IC50 value (nmol/L)/([A]/EC50 value (nmol/L)) [A]; Concentration of agonist (nmol/L)

Compound | IC50 (human TRPV4 [1]) | Ki (human TRPV4 [1]) | solubility at 16 h (Solubility test) | Ki (human TRPV4 [2])
O=C(Nc1cccc(C(F)(F)F)c1)c1cc(-c2ccccc2)nn1CCCN1CCOCC1 [Compound I-085] | 1300 nM | 590 nM | 14.5 µM (≈ 6.65 µg/mL) | –
Cc1c(C(=O)Nc2cccc(C(F)(F)F)c2)cc(C(C)(C)C)n1CCCN1CCOCC1 [Compound I-002] | 360 nM | – | 19.3 µM (≈ 8.71 µg/mL) | 197 nM
Cc1c(C(=O)Nc2cccc(C(F)(F)F)c2)cc(-c2cccnc2)n1CCCN1CCOCC1 [Compound I-021] | 610 nM | – | > 50 µM | 379 nM
Cc1c(C(=O)Nc2cccc(C(F)(F)F)c2)cc(C#N)n1CCCN1CCOCC1 [Compound I-079] | 7800 nM | 3200 nM | 40.2 µM (≈ 16.9 µg/mL) | –
Cc1c(C(=O)Nc2ccccc2C(F)(F)F)cc(-c2ccccc2)n1CCCN1CCOCC1 [Compound I-022] | 2400 nM | – | > 50 µM | 2480 nM
Cc1c(C(=O)Nc2cccc(C(F)(F)F)c2)cc(-c2ccccc2)n1CCCN1CCNC(=O)C1 [Compound I-071] | 260 nM | – | 18.5 µM (≈ 8.96 µg/mL) | 196 nM
Cc1cc(C(=O)Nc2cccc(C(F)(F)F)c2)c(C)n1CCCN1CCOCC1 [Compound I-017] | – | – | > 50 µM | 1560 nM
CC(=O)N1CCC(c2cc(C(=O)Nc3cccc(C(F)(F)F)c3)c(C)n2CCCN2CCOCC2)CC1 [Compound I-077] | 4700 nM | 2000 nM | > 50 µM | –
Cc1c(C(=O)Nc2ccccc2)cc(-c2ccccc2)n1CCCN1CCOCC1 [Compound I-009] | 1500 nM | – | > 50 µM | 678 nM
Cc1c(C(=O)Nc2cccc(C(F)(F)F)c2)cc(-c2ccccc2)n1CCCN(CCO)CCO [Compound I-016] | 130 nM | – | > 50 µM | 191 nM
Cc1c(C(=O)Nc2cccc(C(F)(F)F)c2)cc(-c2ccccc2)n1CCCN(C)CC1CC1 [Compound I-033] | – | – | 26.8 µM (≈ 12.6 µg/mL) | 655 nM
Cc1c(C(=O)Nc2cccc(C(F)(F)F)c2)cc(-c2ccccc2)n1CCCN(C)CC(C)(C)CN(C)C [Compound I-038] | – | – | > 50 µM | 352 nM
O=C(Nc1cccc(C(F)(F)F)c1)c1cc(-c2ccccc2)n(CCCN2CCOCC2)n1 [Compound I-086] | 3400 nM | 1600 nM | 8.3 µM (≈ 3.81 µg/mL) | –
Cc1c(C(=O)Nc2cccc(C(F)(F)F)c2)cc(C2CCN(S(C)(=O)=O)CC2)n1CCCN1CCOCC1 [Compound I-078] | 4900 nM | 2100 nM | 20.1 µM (≈ 11.2 µg/mL) | –
Cc1c(C(=O)Nc2cccc(C(F)(F)F)c2)cc(-c2ccccn2)n1CCCN1CCOCC1 [Compound I-073] | 340 nM | 160 nM | 28.9 µM (≈ 13.7 µg/mL) | –
Cc1c(C(=O)Nc2cccc(C(F)(F)F)c2)cc(-c2ccncc2)n1CCCN1CCOCC1 [Compound I-074] | 1700 nM | 780 nM | > 50 µM | –
Cc1c(C(=O)Nc2ccc(Cl)cn2)cc(-c2ccccc2)n1CCCN1CCOCC1 [Compound I-004] | – | – | 39.2 µM (≈ 17.2 µg/mL) | 1570 nM
O=C(Nc1cccc(C(F)(F)F)c1)c1cnc(-c2ccccc2)c(CCCN2CCOCC2)c1 [Compound I-088] | 5800 nM | 2800 nM | 35.1 µM (≈ 16.5 µg/mL) | –
Cc1c(NS(=O)(=O)c2cccc(C(F)(F)F)c2)cc(-c2ccccc2)n1CCCN1CCOCC1 [Compound I-080] | 7400 nM | – | 24.3 µM (≈ 12.3 µg/mL) | 1800 nM
CCOC(=O)Cc1csc(NC(=O)c2cc(-c3ccccc3)n(CCCN3CCOCC3)c2C)n1 [Compound I-005] | – | – | > 50 µM | 1700 nM
Cc1c(C(=O)Nc2cccc(C(F)(F)F)c2)cc(-c2ccccc2)n1CCCN(C)CC1CCN(C)CC1 [Compound I-039] | – | – | > 50 µM | 282 nM
